Read-outs that look alike come from different tables or passages of the source.
Tests used:
Assay type in all cases: in vivo
[1] = test system: Kochia (Kochia scoparia); test: Test A preemergence; conditions: Bassia scoparia, pre-emergence, 240 h; for pest or weed control at 125 g/ha: 125 g ai/ha
In short: (§1)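 Each rating is a visual injury score from 0 to 100 given about 10 d after treatment, judged against untreated controls kept alongside in the greenhouse. In loam soil–sand blend, seeds got a preemergence directed soil spray, while postemergence plants were 2 to 10 cm tall at spraying.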

[2] = test system: barnyardgrass (Echinochloa crus-galli); test: Test A preemergence; conditions: Echinochloa crus-galli, pre-emergence, 240 h; for pest or weed control at 125 g/ha: 125 g ai/ha, Preemergence, visual injury rating after approximately 10 d, read-out: Barnyardgrass plant response rating (0 to 100 scale, 0 is no effect, 100 is complete control); for pest or weed control at 500 g/ha: 500 g ai/ha, preemergence, visual injury rating about 10 d after treatment, 0 to 100 scale (0 no effect, 100 complete control), read-out: Barnyardgrass plant response rating
In short: as §1

[3] = test system: giant foxtail (Setaria faberii); test: Test A preemergence; conditions: Setaria faberi, pre-emergence, 240 h; for pest or weed control at 125 g/ha: 125 g ai/ha, Preemergence, visual injury rating after approximately 10 d, read-out: Foxtail, Giant plant response rating (0 to 100 scale, 0 is no effect, 100 is complete control); for pest or weed control at 500 g/ha: 500 g ai/ha, preemergence, visual injury rating about 10 d after treatment, 0 to 100 scale (0 no effect, 100 complete control), read-out: Foxtail, Giant plant response rating
In short: as §1

[4] = test system: pigweed (Amaranthus retroflexus); test: Test A preemergence; conditions: Amaranthus retroflexus, pre-emergence, 240 h; for pest or weed control at 125 g/ha: 125 g ai/ha; for pest or weed control at 500 g/ha: 500 g ai/ha, visual injury rating about 10 d after treatment, 0 to 100 scale (0 no effect, 100 complete control)
[5] = test system: ragweed (common ragweed, Ambrosia elatior); test: Test A preemergence; conditions: Ambrosia artemisiifolia, pre-emergence, 240 h; for pest or weed control at 125 g/ha: 125 g ai/ha
In short: as §1

[6] = test system: ryegrass, Italian (Italian ryegrass, Lolium multiflorum); test: Test A preemergence; conditions: Lolium multiflorum, pre-emergence, 240 h; for pest or weed control at 125 g/ha: 125 g ai/ha; for pest or weed control at 500 g/ha: 500 g ai/ha, visual injury rating about 10 d after treatment, 0 to 100 scale (0 no effect, 100 complete control)
In short: as §1

[7] = test system: Kochia (Kochia scoparia); test: Test A postemergence; conditions: Bassia scoparia, post-emergence, 240 h, postemergence, read-out: Kochia plant response rating; for pest or weed control at 125 g/ha: 125 g ai/ha, visual injury on 0 to 100 scale (0 no effect, 100 complete control), approx. 10 d
In short: as §1

[8] = test system: barnyardgrass (Echinochloa crus-galli); test: Test A postemergence; conditions: Echinochloa crus-galli, post-emergence, 240 h, postemergence; for pest or weed control at 125 g/ha: 125 g ai/ha, visual injury on 0 to 100 scale (0 no effect, 100 complete control); for pest or weed control at 500 g/ha: 500 g ai/ha
In short: as §1

[9] = test system: giant foxtail (Setaria faberii); test: Test A postemergence; conditions: Setaria faberi, post-emergence, 240 h, postemergence; for pest or weed control at 125 g/ha: 125 g ai/ha, visual injury on 0 to 100 scale (0 no effect, 100 complete control); for pest or weed control at 500 g/ha: 500 g ai/ha
In short: as §1

[10] = test system: wheat (Triticum aestivum); test: Test A postemergence; conditions: Triticum aestivum, post-emergence, 240 h, postemergence, read-out: Wheat plant response rating; for plant injury at 125 g/ha: 125 g ai/ha, visual injury on 0 to 100 scale (0 no effect, 100 complete control), approx. 10 d
In short: as §1

[11] = test system: barnyardgrass (Echinochloa crus-galli); test: Test B flooded paddy test; conditions: Echinochloa crus-galli, 250 g ai/ha, Flood; 0 to 100 scale where 0 is no effect and 100 is complete control; read-out: Barnyardgrass plant response rating
In short: (§2)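 Visual ratings (0 none to 100 complete control) are relative to untreated plants, taken 13–15 d after treatment in a greenhouse. Test material went straight into floodwater standing 3 cm above the soil, kept constant, on plants at the 2-leaf stage.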

[12] = test system: ducksalad (Heteranthera limosa); test: Test B flooded paddy test; conditions: Heteranthera limosa, 250 g ai/ha, Flood; 0 to 100 scale where 0 is no effect and 100 is complete control; read-out: Ducksalad plant response rating
In short: as §2

[13] = test system: rice (Oryra sativa); test: Test B flooded paddy test; conditions: Oryza sativa, 250 g ai/ha, Flood; 0 to 100 scale where 0 is no effect and 100 is complete control; read-out: Rice plant response rating
In short: as §2

[14] = test system: sedge, umbrella (small-flower umbrella sedge, Cyperus difformis); test: Test B flooded paddy test; conditions: Cyperus difformis, 250 g ai/ha, Flood; 0 to 100 scale where 0 is no effect and 100 is complete control; read-out: Sedge, Umbrella plant response rating
In short: as §2

[15] = preemergence, read-out: Pigweed plant response rating
[16] = preemergence, read-out: Ryegrass, Italian plant response rating
[17] = approx. 10 d, read-out: Barnyardgrass plant response rating
[18] = approx. 10 d, read-out: Foxtail, Giant plant response rating
[19] = 500 g ai/ha, 0 to 100 scale, 0 is no effect, 100 is complete control

Work on `Cc1cc([C@H]2CNC(=O)[C@@H]2C(=O)Nc2ccccc2S(C)(=O)=O)ccc1C(F)(F)F` [Compound 1041] yielded a pest or weed control at 125 g/ha ([1]; Preemergence, visual injury rating after approximately 10 d, read-out: Kochia plant response rating (0 to 100 scale, 0 is no effect, 100 is complete control)) of 30%, a pest or weed control at 125 g/ha [2] of 30% and a pest or weed control at 500 g/ha [2] of 60%. For the same compound, the pest or weed control at 125 g/ha [3] was 80%, the pest or weed control at 500 g/ha [3] was 90% and the pest or weed control at 125 g/ha ([4]; Preemergence, visual injury rating after approximately 10 d, read-out: Pigweed plant response rating (0 to 100 scale, 0 is no effect, 100 is complete control)) was 0%. It also gave a pest or weed control at 500 g/ha [4, 15] of 20%, a pest or weed control at 125 g/ha ([5]; Preemergence, visual injury rating after approximately 10 d, read-out: Ragweed plant response rating (0 to 100 scale, 0 is no effect, 100 is complete control)) of 20% and a pest or weed control at 125 g/ha ([6]; Preemergence, visual injury rating after approximately 10 d, read-out: Ryegrass, Italian plant response rating (0 to 100 scale, 0 is no effect, 100 is complete control)) of 0%. For the same compound, the pest or weed control at 500 g/ha [6, 16] was 0%, the pest or weed control at 125 g/ha [7] was 0% and the pest or weed control at 125 g/ha [8, 17] was 0%. The pest or weed control at 500 g/ha ([8]; visual injury, 0 to 100 scale (0 no effect, 100 complete control), approx. 10 d, read-out: Plant response rating, Barnyardgrass) was 50%, the pest or weed control at 125 g/ha [9, 18] was 0% and the pest or weed control at 500 g/ha ([9]; visual injury, 0 to 100 scale (0 no effect, 100 complete control), approx. 10 d, read-out: Plant response rating, Foxtail, Giant) was 50%. The plant injury at 125 g/ha [10] was 0%, the pest or weed control at 250 g/ha [11] was 0% and the pest or weed control at 250 g/ha [12] was 100%. The pest or weed control at 250 g/ha [13] was 0% and the pest or weed control at 250 g/ha [14] was 0%.

For `CCc1cccc([C@H]2CCNC(=O)[C@@H]2C(=O)Nc2cccc(F)c2F)c1` [Compound 1058], the pest or weed control at 125 g/ha ([1]; preemergence, 0 to 100 scale where 0 is no effect and 100 is complete control, approx. 10 d, read-out: Kochia plant response rating) was 0%, the pest or weed control at 500 g/ha ([1]; 500 g ai/ha, preemergence, visual injury rating about 10 d after treatment, 0 to 100 scale (0 no effect, 100 complete control), read-out: Kochia plant response rating) was 30% and the pest or weed control at 125 g/ha [2] was 90%. The pest or weed control at 500 g/ha [2] was 100%, the pest or weed control at 125 g/ha [3] was 90% and the pest or weed control at 500 g/ha [3] was 100%. The pest or weed control at 125 g/ha ([4]; preemergence, 0 to 100 scale where 0 is no effect and 100 is complete control, approx. 10 d, read-out: Pigweed plant response rating) was 0%, the pest or weed control at 500 g/ha [4, 15] was 0% and the pest or weed control at 125 g/ha ([5]; preemergence, 0 to 100 scale where 0 is no effect and 100 is complete control, approx. 10 d, read-out: Ragweed plant response rating) was 0%. For the same compound, the pest or weed control at 500 g/ha ([5]; 500 g ai/ha, preemergence, visual injury rating about 10 d after treatment, 0 to 100 scale (0 no effect, 100 complete control), read-out: Ragweed plant response rating) was 0%, the pest or weed control at 125 g/ha ([6]; preemergence, 0 to 100 scale where 0 is no effect and 100 is complete control, approx. 10 d, read-out: Ryegrass, Italian plant response rating) was 0% and the pest or weed control at 500 g/ha [6, 16] was 40%. It also gave a pest or weed control at 125 g/ha [7] of 0%, a pest or weed control at 500 g/ha [7, 19] of 20% and a pest or weed control at 125 g/ha [8, 17] of 70%. For the same compound, the pest or weed control at 500 g/ha ([8]; 0 to 100 scale, 0 is no effect, 100 is complete control, read-out: Barnyardgrass plant response rating) was 90%, the pest or weed control at 125 g/ha [9, 18] was 0% and the pest or weed control at 500 g/ha ([9]; 0 to 100 scale, 0 is no effect, 100 is complete control, read-out: Foxtail, Giant plant response rating) was 0%. For the same compound, the plant injury at 125 g/ha [10] was 0%, the plant injury at 500 g/ha [10, 19] was 0% and the pest or weed control at 250 g/ha [11] was 35%. For the same compound, the pest or weed control at 250 g/ha [12] was 0%, the pest or weed control at 250 g/ha [13] was 25% and the pest or weed control at 250 g/ha [14] was 0%.
